Data set [1] can be described thus: In vitro stability in rat plasma. Format: in vitro ADME. Particulars: 37 °C, within 24 h, degradation beginning after about 8 h. The procedure:
Equal samples were collected, and 600 μL acetonitrile was added to quench enzyme reactions. The reaction mixture was swirled for 30 s and then centrifuged at 15,000 rpm at 4 °C for 15 min. The supernatant of each sample was analyzed directly by HPLC (1260 Infinity II, Agilent Technologies, Waldbronn, Germany).

The target of another data set is T1, HDAC4 (Homo sapiens, UniProt P56524).
T1 construct: purchased BPS Bioscience
Kind of data set: In vitro HDAC inhibition fluorescence assay, HDAC4. The class given is biochemical. As for the experimental part:
All of the HDAC enzymes were purchased from BPS Bioscience. In vitro HDAC inhibition assays were conducted as previously described. In brief, 20 μL of recombinant HDAC enzyme solution (HDAC1-9, 11) was mixed with various concentrations of the tested compound (20 μL). The mixture was incubated at 37 °C for 1 h, and then, 10 μL of fluorogenic substrate (Boc-Lys (acetyl)-AMC for HDAC1, 2, 3 and 6; Boc-Lys (trifluoroacetyl)AMC for HDAC4, 5, 7, 8, 9 and 11) was added to achieve a final concentration of 50 μM. After incubation at 37 °C for 2 h, the catalysis was stopped by the addition of 10 μL of developer containing 30 mg/mL trypsin and 6 μM trichostatin A (TSA). Then, 30 min later, the fluorescence intensity was measured using a microplate reader at excitation and emission wavelengths of 360 and 460 nm, respectively. The inhibition ratios were calculated from the fluorescence intensity readings of tested wells relative to those of control wells, and the IC50 curves and values were determined by GraphPad Prism 6.0, using the “log(inhibitor) vs. normalized response-variable slope” function.

The subject of a further data set is MV4-11 cells. Kind of data set: Microdilution checkerboard assay, 25c combined with Venetoclax. Format: cell-based. The note with it: Homo sapiens, 72 h, read-out: Inhibition Rate (%). The procedure: The inhibition effect of 25c combined with Venetoclax on the proliferation of MV4-11 cells was determined by microdilution checkerboard assay. CompuSyn software was used to calculate the combined action index of the two compounds, and the cell inhibition rates of the two compounds acting alone and the combined action were input to calculate the combination index (CI) to evaluate the synergistic effect of the drugs. A CI value less than 1 indicates a synergistic effect, a CI value equal to 1 indicates an additive effect and a CI value greater than 1 indicates an antagonistic effect.
A general note: In broth dilution the organism is exposed to a series of concentrations in liquid medium.

The record followed here is PMC11204923, “Marine Cytotoxin Santacruzamate A Derivatives as Potent HDAC1-3 Inhibitors and Their Synergistic Anti-Leukemia Effects with Venetoclax” (Marine Drugs, 2024).

T1 sequence (P56524 whole entry): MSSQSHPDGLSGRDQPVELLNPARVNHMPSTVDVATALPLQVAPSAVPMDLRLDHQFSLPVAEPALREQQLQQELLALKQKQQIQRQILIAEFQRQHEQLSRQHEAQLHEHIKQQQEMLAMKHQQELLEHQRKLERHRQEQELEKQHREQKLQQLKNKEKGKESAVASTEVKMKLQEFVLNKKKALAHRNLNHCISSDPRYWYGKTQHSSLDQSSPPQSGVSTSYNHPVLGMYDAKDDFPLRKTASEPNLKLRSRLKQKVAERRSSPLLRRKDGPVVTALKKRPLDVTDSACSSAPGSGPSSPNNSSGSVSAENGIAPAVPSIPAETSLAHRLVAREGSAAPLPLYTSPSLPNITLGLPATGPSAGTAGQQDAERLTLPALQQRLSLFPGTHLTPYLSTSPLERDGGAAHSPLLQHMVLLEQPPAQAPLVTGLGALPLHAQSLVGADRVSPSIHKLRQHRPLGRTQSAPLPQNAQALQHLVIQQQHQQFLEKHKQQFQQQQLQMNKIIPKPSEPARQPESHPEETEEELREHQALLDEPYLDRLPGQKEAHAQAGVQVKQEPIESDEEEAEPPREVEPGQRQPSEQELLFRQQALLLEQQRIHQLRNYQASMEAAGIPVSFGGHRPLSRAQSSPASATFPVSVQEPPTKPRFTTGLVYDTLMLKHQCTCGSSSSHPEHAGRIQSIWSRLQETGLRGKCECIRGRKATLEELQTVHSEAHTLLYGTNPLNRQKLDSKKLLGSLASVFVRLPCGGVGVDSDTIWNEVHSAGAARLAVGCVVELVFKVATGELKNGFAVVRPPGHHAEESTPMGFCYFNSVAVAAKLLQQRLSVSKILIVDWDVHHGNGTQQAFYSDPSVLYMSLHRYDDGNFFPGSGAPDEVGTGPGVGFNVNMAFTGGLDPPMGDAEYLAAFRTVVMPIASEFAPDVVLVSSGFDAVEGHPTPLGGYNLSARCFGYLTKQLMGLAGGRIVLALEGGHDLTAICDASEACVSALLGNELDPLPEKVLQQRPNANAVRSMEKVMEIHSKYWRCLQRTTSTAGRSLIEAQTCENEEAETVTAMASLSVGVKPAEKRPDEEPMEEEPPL

As usually defined, the IC50 is the concentration that gives 50% inhibition. A high value points to weaker potency. In general, inhibition refers to the share of the control response that was lost under treatment. Take `CCCNNC(=O)C=Cc1ccc(CNCCc2ccccc2)cc1` [Compound 25c, 3-(4-((Phenethylamino)methyl)phenyl)-N′-propylacrylohydrazide]: in data set [1], the “degradation in rat plasma” value is given as 35.60%. In addition, the IC50 at HDAC4 is over 10 µM. Moreover, in the data set on MV4-11 cells (25c 0.13 μM alone), the inhibition at 0.13 µM came out at 15.8%. In the data set with MV4-11 cells (25c 0.19 μM alone), the inhibition at 0.19 µM amounted to 33.9%. Moreover, the inhibition at 0.28 µM in the data set on MV4-11 cells (25c 0.28 μM alone) worked out at 69.8%.
